Tests used:
Endothelin-1 receptor = biological target: T1, Endothelin-1 receptor (Homo sapiens, UniProt P25101); format: cell membranes, Membrane; settings: cho-k1; also: in other assays of this panel Not Active means under 50% inhibition at 10 µM
T1 sequence (P25101 whole entry): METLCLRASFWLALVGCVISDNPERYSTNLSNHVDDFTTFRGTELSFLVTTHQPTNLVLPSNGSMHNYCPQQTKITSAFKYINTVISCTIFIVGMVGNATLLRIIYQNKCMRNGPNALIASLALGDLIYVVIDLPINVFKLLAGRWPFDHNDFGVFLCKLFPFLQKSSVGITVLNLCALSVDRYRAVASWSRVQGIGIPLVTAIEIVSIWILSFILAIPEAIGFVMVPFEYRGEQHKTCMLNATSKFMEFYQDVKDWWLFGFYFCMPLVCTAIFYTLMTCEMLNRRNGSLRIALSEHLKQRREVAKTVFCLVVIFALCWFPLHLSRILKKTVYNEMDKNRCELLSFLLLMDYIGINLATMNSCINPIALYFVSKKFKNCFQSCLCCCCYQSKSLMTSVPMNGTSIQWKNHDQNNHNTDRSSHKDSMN

[1] = DRUGMATRIX: Tumor Necrosis Factor (TNF), Non-Selective radioligand binding (ligand: [125I] TNF-alpha); format: cell membranes, Membrane; settings: u-937; Not Active = under 50% inhibition at 10 µM
[2] = DRUGMATRIX: Platelet-Derived Growth Factor (PDGF) radioligand binding (ligand: [125I] PDGF); format: cell-based; settings: nih3t3; Not Active = under 50% inhibition at 10 µM
Vasopressin V1a receptor = Vasopressin V1a receptor (Homo sapiens, UniProt P37288); format: cell membranes, Membrane; settings: hek293; also: in other assays of this panel Not Active means under 50% inhibition at 10 µM
[3] = DRUGMATRIX: Glutamate, Kainate radioligand binding (ligand: [3H] Kainic acid); format: cell membranes, Rattus norvegicus, Wistar, Brain, Membrane; settings: Not Active = under 50% inhibition at 10 µM
[4] = biological target: T2, Receptor-type tyrosine-protein phosphatase C (Homo sapiens, UniProt P08575); set-up: species or system Escherichia coli;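 also: inhibition of CD45 enzyme activity measured using DiFMUP as substrate; in other assays of this panel Not Active means under 50% inhibition at 10 µM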
T2 sequence (P08575 whole entry): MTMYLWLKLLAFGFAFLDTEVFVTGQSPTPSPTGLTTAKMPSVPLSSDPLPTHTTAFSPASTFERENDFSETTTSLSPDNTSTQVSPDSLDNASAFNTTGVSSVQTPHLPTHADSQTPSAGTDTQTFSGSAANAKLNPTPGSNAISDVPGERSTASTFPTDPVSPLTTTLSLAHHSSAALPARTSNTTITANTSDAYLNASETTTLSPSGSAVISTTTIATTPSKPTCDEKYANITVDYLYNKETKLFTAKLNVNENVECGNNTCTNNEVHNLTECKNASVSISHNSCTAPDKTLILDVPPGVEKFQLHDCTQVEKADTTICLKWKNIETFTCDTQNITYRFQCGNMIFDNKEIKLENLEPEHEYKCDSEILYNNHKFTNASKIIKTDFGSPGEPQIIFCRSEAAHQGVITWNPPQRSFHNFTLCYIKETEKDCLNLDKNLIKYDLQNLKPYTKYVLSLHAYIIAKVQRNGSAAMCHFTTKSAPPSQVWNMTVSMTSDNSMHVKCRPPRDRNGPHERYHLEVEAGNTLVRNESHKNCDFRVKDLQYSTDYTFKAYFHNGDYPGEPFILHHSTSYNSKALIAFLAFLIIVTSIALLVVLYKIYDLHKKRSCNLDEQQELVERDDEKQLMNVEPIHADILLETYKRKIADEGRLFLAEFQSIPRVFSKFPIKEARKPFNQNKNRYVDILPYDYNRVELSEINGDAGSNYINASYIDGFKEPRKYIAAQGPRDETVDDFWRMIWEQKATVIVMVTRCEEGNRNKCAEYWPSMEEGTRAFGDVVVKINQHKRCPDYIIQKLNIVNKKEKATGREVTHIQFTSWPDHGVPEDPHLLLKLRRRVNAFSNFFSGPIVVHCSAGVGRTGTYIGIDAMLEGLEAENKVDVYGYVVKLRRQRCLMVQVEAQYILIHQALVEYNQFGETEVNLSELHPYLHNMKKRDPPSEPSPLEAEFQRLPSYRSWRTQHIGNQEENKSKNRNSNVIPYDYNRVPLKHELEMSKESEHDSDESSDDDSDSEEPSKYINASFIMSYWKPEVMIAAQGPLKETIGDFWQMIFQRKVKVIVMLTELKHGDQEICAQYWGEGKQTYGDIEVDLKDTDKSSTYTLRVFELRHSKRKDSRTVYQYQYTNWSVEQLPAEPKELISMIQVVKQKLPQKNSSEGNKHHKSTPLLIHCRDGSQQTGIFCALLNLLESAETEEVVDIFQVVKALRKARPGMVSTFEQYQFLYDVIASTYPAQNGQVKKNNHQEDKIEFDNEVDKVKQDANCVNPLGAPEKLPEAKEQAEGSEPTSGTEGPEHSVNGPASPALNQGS

[5] = biological target: T3, C-X-C chemokine receptor type 1 (Homo sapiens, UniProt P25024); also: in other assays of this panel Not Active means under 50% inhibition at 10 µM
T3 sequence (P25024 whole entry): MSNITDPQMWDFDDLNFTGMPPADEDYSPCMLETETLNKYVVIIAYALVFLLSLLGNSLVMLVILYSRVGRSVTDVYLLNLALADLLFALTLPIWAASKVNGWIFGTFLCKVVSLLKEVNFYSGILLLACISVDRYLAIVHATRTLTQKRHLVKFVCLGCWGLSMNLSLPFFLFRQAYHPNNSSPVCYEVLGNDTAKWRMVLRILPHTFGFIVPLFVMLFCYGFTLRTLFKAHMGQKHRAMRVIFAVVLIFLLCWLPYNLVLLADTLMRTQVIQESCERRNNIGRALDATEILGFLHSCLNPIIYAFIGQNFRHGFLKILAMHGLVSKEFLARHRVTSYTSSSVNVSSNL

[6] = DRUGMATRIX: Sodium/nucleoside co-transporter radioligand binding (ligand: nitrobenzylthioinosine); format: cell membranes, Cavia porcellus, Dunkin-Hartley, Cerebral cortex, Membrane; settings: Not Active = under 50% inhibition at 10 µM
[7] = DRUGMATRIX: Glutamate, NMDA, Phencyclidine radioligand binding (ligand: [3H] TCP); format: cell membranes, Rattus norvegicus, Wistar, Cerebral cortex, Membrane; settings: Not Active = under 50% inhibition at 10 µM

Chain of Vasopressin V1a receptor (P37288 whole entry): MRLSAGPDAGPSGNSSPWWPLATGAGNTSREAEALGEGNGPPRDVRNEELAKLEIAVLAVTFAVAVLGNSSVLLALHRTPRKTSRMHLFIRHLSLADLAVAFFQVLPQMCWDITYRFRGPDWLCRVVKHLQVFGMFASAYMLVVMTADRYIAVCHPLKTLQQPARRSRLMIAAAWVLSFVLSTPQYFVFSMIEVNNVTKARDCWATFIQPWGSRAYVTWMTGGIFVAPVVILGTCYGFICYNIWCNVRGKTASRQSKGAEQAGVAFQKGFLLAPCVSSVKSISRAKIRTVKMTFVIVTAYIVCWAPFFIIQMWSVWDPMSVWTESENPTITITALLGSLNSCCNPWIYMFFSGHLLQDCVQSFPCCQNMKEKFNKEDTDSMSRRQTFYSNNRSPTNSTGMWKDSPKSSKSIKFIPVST

CC(=O)Nc1ccc2c(c1)Cc1ccccc1-2 [2-ACETYLAMINOFLUORENE]
Not Active: IC50 (Endothelin-1 receptor) | IC50 [1] | Ki [1] | IC50 [2] | Ki [2] | IC50 (Vasopressin V1a receptor) | IC50 [3] | Ki [3] | IC50 [4] | IC50 [5] | IC50 [6] | Ki [6] | IC50 [7] | Ki [7]

C[C@H](C(=O)O)c1ccc2oc(-c3ccc(F)cc3)nc2c1 [FLUNOXAPROFEN]
Not Active: IC50 (Endothelin-1 receptor) | IC50 [1] | Ki [1] | IC50 [2] | Ki [2] | IC50 (Vasopressin V1a receptor) | IC50 [3] | Ki [3] | IC50 [4] | IC50 [5] | IC50 [6] | Ki [6] | IC50 [7] | Ki [7]

C[C@H]1C[C@H]2[C@@H]3CCC4=CC(=O)C=C[C@]4(C)[C@@]3(F)[C@@H](O)C[C@]2(C)[C@@]1(O)C(=O)CO [BETAMETHASONE]
Not Active: IC50 (Endothelin-1 receptor) | IC50 [1] | Ki [1] | IC50 [2] | Ki [2] | IC50 (Vasopressin V1a receptor) | IC50 [3] | Ki [3] | IC50 [4] | IC50 [5] | IC50 [6] | Ki [6] | IC50 [7] | Ki [7]

CN(CCOc1ccc(C[C@H](Nc2ccccc2C(=O)c2ccccc2)C(=O)O)cc1)c1ccccn1
Not Active: IC50 (Endothelin-1 receptor) | IC50 [1] | Ki [1] | IC50 [2] | Ki [2] | IC50 (Vasopressin V1a receptor) | IC50 [3] | Ki [3] | IC50 [4] | IC50 [5] | IC50 [6] | Ki [6] | IC50 [7] | Ki [7]

NS(=O)(=O)c1cc(C(=O)O)c(NCc2ccco2)cc1Cl [FUROSEMIDE]
Not Active: IC50 (Endothelin-1 receptor) | IC50 [1] | Ki [1] | IC50 [2] | Ki [2] | IC50 (Vasopressin V1a receptor) | IC50 [3] | Ki [3] | IC50 [4] | IC50 [5] | IC50 [6] | Ki [6] | IC50 [7] | Ki [7]

CCN1CCN(c2cc3c(cc2F)c(=O)c(C(=O)O)cn3C2CC2)CC1 [ENROFLOXACIN]
Not Active: IC50 (Endothelin-1 receptor) | IC50 [1] | Ki [1] | IC50 [2] | Ki [2] | IC50 (Vasopressin V1a receptor) | IC50 [3] | Ki [3] | IC50 [4] | IC50 [5] | IC50 [6] | Ki [6] | IC50 [7] | Ki [7]

C[N+](C)(C)CCOP(=O)([O-])OC[C@H](O)CO
Not Active: IC50 (Endothelin-1 receptor) | IC50 [1] | Ki [1] | IC50 [2] | Ki [2] | IC50 (Vasopressin V1a receptor) | IC50 [3] | Ki [3] | IC50 [4] | IC50 [5] | IC50 [6] | Ki [6] | IC50 [7] | Ki [7]

O=C(Nc1ccc(Cl)c(Cl)c1)c1cc(Cl)cc(Cl)c1O [3,3',4',5-TETRACHLOROSALICYLANILIDE]
Not Active: IC50 (Endothelin-1 receptor) | IC50 [1] | Ki [1] | IC50 [2] | Ki [2] | IC50 (Vasopressin V1a receptor) | IC50 [3] | Ki [3] | IC50 [4] | IC50 [5] | IC50 [6] | Ki [6] | IC50 [7] | Ki [7]

O=C(O)COC(=O)Cc1ccccc1Nc1c(Cl)cccc1Cl [ACECLOFENAC]
Not Active: IC50 (Endothelin-1 receptor) | IC50 [1] | Ki [1] | IC50 [2] | Ki [2] | IC50 (Vasopressin V1a receptor) | IC50 [3] | Ki [3] | IC50 [4] | IC50 [5] | IC50 [6] | Ki [6] | IC50 [7] | Ki [7]

O=c1[nH]c2ccccc2c2ccccc12
Not Active: IC50 (Endothelin-1 receptor) | IC50 [1] | Ki [1] | IC50 [2] | Ki [2] | IC50 (Vasopressin V1a receptor) | IC50 [3] | Ki [3] | IC50 [4] | IC50 [5] | IC50 [6] | Ki [6] | IC50 [7] | Ki [7]

C=CCN1CC[C@]23c4c5ccc(O)c4O[C@H]2/C(=N/N=C2\CC[C@@]4(O)[C@H]6Cc7ccc(O)c8c7[C@@]4(CCN6CC=C)[C@H]2O8)CC[C@@]3(O)[C@H]1C5 [NALOXONAZINE]
Not Active: IC50 (Endothelin-1 receptor) | IC50 [1] | Ki [1] | IC50 [2] | Ki [2] | IC50 (Vasopressin V1a receptor) | IC50 [3] | Ki [3] | IC50 [4] | IC50 [5] | IC50 [6] | Ki [6] | IC50 [7] | Ki [7]

ClC1=C(Cl)[C@]2(Cl)[C@@H]3[C@@H]4C[C@@H]([C@H]5O[C@@H]45)[C@@H]3[C@@]1(Cl)C2(Cl)Cl [DIELDRIN]
Not Active: IC50 (Endothelin-1 receptor) | IC50 [1] | Ki [1] | IC50 [2] | Ki [2] | IC50 (Vasopressin V1a receptor) | IC50 [3] | Ki [3] | IC50 [4] | IC50 [5] | IC50 [6] | Ki [6] | IC50 [7] | Ki [7]

COPPER(II) OXIDE
Not Active: IC50 (Endothelin-1 receptor) | Ki (Endothelin-1 receptor) | IC50 [1] | Ki [1] | IC50 [2] | Ki [2] | IC50 (Vasopressin V1a receptor) | Ki (Vasopressin V1a receptor) | IC50 [3] | Ki [3] | IC50 [4] | Ki [4] | IC50 [5] | Ki [5] | IC50 [6] | Ki [6] | IC50 [7] | Ki [7]

CCO [ALCOHOL]
Not Active: IC50 (Endothelin-1 receptor) | IC50 [1] | Ki [1] | IC50 [2] | Ki [2] | IC50 (Vasopressin V1a receptor) | IC50 [3] | Ki [3] | IC50 [4] | IC50 [5] | IC50 [6] | Ki [6] | IC50 [7] | Ki [7]

— ChEMBL document CHEMBL1909046, “DrugMatrix in vitro pharmacology data”
